Results taken from patent EP4722219A1 (Gan & Lee Pharmaceuticals Co., Ltd., priority 2023, dated 2024).

Legend:
Type in all cases: cell-based
T-47D cells = experiment: Inhibition of cell proliferation in T-47D cells (CCK-8); settings: 6 days treatment, CCK-8 cell viability
Method: Test Example 2 Inhibitory effect of PROTAC compounds provided by the present invention on cell proliferation in T-47D cells
The complete culture medium required for T-47D cells is 1640 (ATCC, Product number: A10491-01) basal culture medium containing 10% fetal bovine serum. T-47D cells were seeded in 96-well plates at a density of 3,000 cells/well, and different concentrations of PROTAC compounds 1-55 provided in the examples of the present invention and positive control sample ARV-471 (source: Inokai) were prepared to treat the cells and incubated at 37 °C, 5% CO2 cell culture incubator for 6 days. According to the manufacturer's instructions, cell viability was detected using a CCK-8 kit (Beyotime, Product number: C0040). The IC50 of each compound after treating for 6 days was calculated using GraphPadPrism software based on the inhibition rate. Table 2 Inhibition IC50 value of T-47D cell proliferation by PROTAC compounds provided by the present invention and positive control sample

MCF-7 cells = experiment: Inhibition of cell proliferation in MCF-7 cells (CCK-8); settings: MCF-7 cell proliferation, 6 days treatment
Method: Test Example 3 Inhibitory effect of PROTAC compounds provided by the present invention on cell proliferation in MCF-7 cells
The complete culture medium required for MCF-7 cells (source ATCC) is DMEM (gibco, Product number: 11995-065) basal culture medium containing 10% fetal bovine serum. MCF-7 cells were seeded in 96-well plates at a density of 800 cells/well, and different concentrations of PROTAC compounds 1-55 provided in the examples of the present invention and positive control sample ARV-471 (source: Inokai) were prepared to treat the cells and incubated at 37 °C, 5% CO2 cell culture incubator for 6 days. According to the manufacturer's instructions, cell viability was detected using a CCK-8 kit (Beyotime, Product number: C0040). The IC50 of each PROTAC compound after treating for 6 days was calculated using GraphPadPrism software based on the inhibition rate. Table 3 Inhibition IC50 value of MCF-7 cell proliferation by PROTAC compounds of the present invention and positive control sample

ERα [1] = target: T1, ERα (Homo sapiens, UniProt P03372); experiment: ERα degradation in T-47D cells (Western blot); settings: 4 hours
T1 sequence (P03372 1-595): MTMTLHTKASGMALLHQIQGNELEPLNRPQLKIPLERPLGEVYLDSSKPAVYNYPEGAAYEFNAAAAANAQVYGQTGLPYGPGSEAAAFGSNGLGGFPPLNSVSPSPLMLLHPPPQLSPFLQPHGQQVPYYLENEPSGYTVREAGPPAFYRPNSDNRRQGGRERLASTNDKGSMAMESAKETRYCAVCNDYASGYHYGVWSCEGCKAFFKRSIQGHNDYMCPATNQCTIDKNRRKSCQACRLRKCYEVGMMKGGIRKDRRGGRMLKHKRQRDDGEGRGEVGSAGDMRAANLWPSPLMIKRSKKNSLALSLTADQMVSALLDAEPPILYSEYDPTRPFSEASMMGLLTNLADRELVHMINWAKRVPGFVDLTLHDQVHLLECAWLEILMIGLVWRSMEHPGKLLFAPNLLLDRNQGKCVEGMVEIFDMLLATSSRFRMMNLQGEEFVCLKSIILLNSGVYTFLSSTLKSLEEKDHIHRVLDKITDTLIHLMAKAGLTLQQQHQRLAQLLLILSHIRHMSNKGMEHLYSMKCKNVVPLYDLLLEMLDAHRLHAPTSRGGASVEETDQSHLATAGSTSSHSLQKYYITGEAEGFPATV
Method: (§1) Western blotting: The total protein concentration in the collected cell lysate supernatant was determined using the BCA protein concentration assay kit (enhanced) (P0009, Beyotime). Based on the total protein concentration determined by BCA, the protein concentration was adjusted to 1 µg/µL using RIPA lysis buffer and 5× SDS-PAGE protein loading buffer (MB01015, GenScript). The protein was denatured in a 95°C water bath for 5 minutes. After denaturation, the condensed water on the tube wall was collected by centrifugation and used as the loading sample. 20µL of the loading sample (20 µg of total protein) was added to the sample well of a 12% precast gel (M00669, GenScript). Electrophoresis was performed at 100 V for 20 minutes, followed by switching to 150 V for 40 minutes. After electrophoresis, the proteins from the SDS-PAGE gel were transferred to a PVDF membrane at a constant voltage of 100 V for 60 minutes. After transfer, the PVDF membrane corresponding to the ERα protein and internal reference protein was cut and incubated in 1× QµickBlock blocking buffer (P0252, Beyotime) for 30 minutes at room temperature on a shaker. After blocking, the ERα primary antibody (1:1000, 8644S, CST) was added and incubated overnight at 4°C on a shaker. The PVDF membrane was washed three times with 1× TBST buffer for 5 minutes each. Rabbit IgG (H+L) secondary antibody (1:7500, SA5-35571, Invitrogen) was added and incubated for 1 hour at room temperature on a shaker. The membrane was then washed again three times with 1× TBST buffer for 5 minutes each. Finally, the membrane was imaged using a dual-color infrared laser imaging system (Odyssey DLx, LICOR). Protein maps were analyzed for grayscale value using Image Studio Lite software. The grayscale correction value for each sample was calculated using the formula: grayscale correction value = grayscale value of the target protein / grayscale value of the corresponding internal reference. Then the grayscale correction values of the compound group and the control group were compared to calculate the degradation rate of the compound. Table 4 Degradation rate of ERα by PROTAC compounds of the present invention and positive control in MCF-7 cells (%)
Test Example 5 Degradation of ERα by the PROTAC compounds disclosed in the present invention in T-47D cells
T-47D (ATCC) cells were cultured in PRMI-1640 medium (30-2001, ATCC) containing 10% FBS (10099141C, Gibco) at 37°C and 5% CO2 until they entered the logarithmic growth phase. T-47D cells were seeded at a density of 3×10^5 cells/well in a 6-well plate and incubated at 37°C, 5% CO2 for 24 hours. After cell attachment, 1 µL of compound dimethyl sulfoxide solution (final concentration 0.15-1000 nM) was added and incubated for another 4 hours at 37°C, 5% CO2 incubator. After 4 hours, the culture medium was discarded, and each well was washed once with 1 mL of pre-chilled 1× DPBS. The cells were then lysed with 50 µL of RIPA lysis buffer (P0013B, Beyotime) and 1× protease inhibitor cocktail (P1005, Beyotime). After incubation on ice for 20 minutes, the cells were centrifuged at 14,000 g at 4°C for 30 minutes. The supernatant was carefully collected and analyzed for ERα protein levels by immunoblotting. Table 5 Degradation rate of ERα by PROTAC compounds of the present invention and positive control sample in T-47D cells (%)

ERα [2] = target: T1, ERα; experiment: ERα degradation in MCF-7 cells (Western blot); parameters: host or cells: MCF-7; settings: 4 hours
Method: Test Example 4 Effect of PROTAC Compounds Disclosed in the Present Invention on ERα Degradation in MCF-7 Cells
MCF-7 (ATCC) cells were cultured in DMEM medium (11995-065, Gibco) containing 10% FBS (10099141C, Gibco) at 37°C and 5% CO2 until they entered the logarithmic growth phase. MCF-7 cells were plated at a density of 3×10^5 cells/well in a 6-well plate and incubated at 37°C, 5% CO2 for 24 hours. After cell attachment, 1µL of compound in dimethyl sulfoxide (final concentration 0.15-1000nM) was added and incubated for another 4 hours at 37°C, 5% CO2 incubator. After 4 hours, the culture medium was discarded, and each well was washed once with 1 mL of pre-chilled 1× DPBS. The cells were then lysed with 50 µL of RIPA lysis buffer (P0013B, Beyotime) and 1× protease inhibitor cocktail (P1005, Beyotime). After incubation on ice for 20 minutes, the cells were centrifuged at 14,000 g at 4°C for 30 minutes. The supernatant was carefully collected and analyzed for ERα protein levels by immunoblotting.
as §1

| Structure (SMILES) | IC50 (T-47D cells; Homo sapiens, T47D, 144 h) | IC50 (MCF-7 cells; Homo sapiens, MCF7, 144 h) | Degradation rate of ERα in T-47D cells (%) (ERα [1]; 1nM) | Degradation rate of ERα in T-47D cells (%) (ERα [1]; 10nM) | Degradation rate of ERα in MCF-7 cells (%) (ERα [2]; 1nM) | Degradation rate of ERα in MCF-7 cells (%) (ERα [2]; 10nM) | IC50 (T-47D cells) | IC50 (MCF-7 cells) |
| --- | --- | --- | --- | --- | --- | --- | --- | --- |
| O=C1CCC(N2Cc3c(ccc4c3OCC43CCC4(CC3)CN(C3CCN(C(=O)C5CCN(c6ccc([C@@H]7c8ccc(O)cc8CC[C@@H]7c7ccccc7)cc6)CC5)CC3)C4)C2=O)C(=O)N1 (stereo partly shown) [ER-P-6] | 0.86 nM | < 0.256 nM | 61% | 83% | 55% | 71% |  |  |
| Cn1c(=O)n(C2CCC(=O)NC2=O)c2ccc3c(c21)OCC31CCN(C2CC3(C2)CN(c2ccc([C@@H]4c5ccc(O)cc5CC[C@@H]4c4ccccc4)cc2)C3)CC1 (stereo partly drawn) [ER-P-18, 3-(1'-(2-(4-((1R,2S)-6-hydroxy-2-phenyl-1,2,3,4-tetrahydronaphthalen-1-yl)phenyl)-2-azaspiro[3.3]heptan-6-yl)-1-methyl-2-oxo-1,2-dihydro-3H,7H-spiro[benzofuro[6,7-d]imidazole-6,4'-piperidin]-3-yl)piperidine-2,6-dione] | 13.7 nM | 7240 nM | 20% | 23% | 33% | 18% |  |  |
| O=C1CCC(NC(=O)c2cc3c(cc2F)CCC2(CCN(CC4CCC(OC5CCN(c6ccc(C7c8ccc(O)cc8CCC7c7ccccc7)cc6)CC5)CC4)CC2)O3)C(=O)N1 [ER-P-90, N-((S)-2,6-dioxopiperidin-3-yl)-6-fluoro-1'-((((1S,4R)-4-((1-(4-((1R,2S)-6-hydroxy-2-phenyl-1,2,3,4-tetrahydronaphthalen-1-yl)phenyl)piperidin-4-yl)oxy)cyclohexyl)methyl)spiro[chromane-2,4'-piperidine]-7-carboxamide] | 171 nM | 3650 nM |  |  |  |  |  |  |
| Cn1c(=O)n(C2CCC(=O)NC2=O)c2ccc3c(c21)OCC31CCN(CC2CCN(c3ccc([C@@H]4c5ccc(O)cc5CC[C@@H]4c4ccccc4)cc3)CC2)CC1 (stereo partly drawn) [ER-P-73, 3-(1'-((1-(4-((1R,2S)-6-hydroxy-2-phenyl-1,2,3,4-tetrahydronaphthalen-1-yl)phenyl)piperidin-4-yl)methyl)-1-methyl-2-oxo-1,2-dihydro-3H,7H-spiro[benzofuro[6,7-d]imidazole-6,4'-piperidin]-3-yl)piperidine-2,6-dione] | 49.4 nM | 3270 nM |  |  |  |  |  |  |
| Cn1c(=O)n(C2CCC(=O)NC2=O)c2ccc3c(c21)OCC31CCN(C(=O)C2CCN(CC3CCN(c4ccc([C@@H]5c6ccc(O)cc6CC[C@@H]5c5ccccc5)cc4)CC3)CC2)CC1 (stereo partly shown) [ER-P-74] | 1.22 nM | 2100 nM |  |  |  |  |  |  |
| COc1cc2c(cc1C(=O)NC1CCC(=O)NC1=O)CCC1(CCN(CC3CCC(OC4CCN(c5ccc(C6c7ccc(O)cc7CCC6c6ccccc6)cc5)CC4)CC3)CC1)O2 (stereo not shown) [ER-P-88] | 9.59 nM | 1030 nM |  |  |  |  |  |  |
| O=C1CC[C@H](NC(=O)c2ccc3c(c2F)OCC32CCN(CC3CCC(OC4CCN(c5ccc([C@@H]6c7ccc(O)cc7CC[C@@H]6c6ccccc6)cc5)CC4)CC3)CC2)C(=O)N1 (stereo partly drawn) [ER-P-82, N-((S)-2,6-dioxopiperidin-3-yl)-7-fluoro-1'-(((1S,4R)-4-((1-(4-((1R,2S)-6-hydroxy-2-phenyl-1,2,3,4-tetrahydronaphthalen-1-yl)phenyl)piperidin-4-yl)oxy)cyclohexyl)methyl)-2H-spiro[benzofuran-3,4'-piperidine]-6-carboxamide] |  |  |  |  |  |  | 28.1 nM | 4390 nM |
| O=C1CCC(N2Cc3c(ccc4c3OCC43CCC4(CCN(C(=O)C5CCN(c6ccc([C@@H]7c8ccc(O)cc8CC[C@@H]7c7ccccc7)cc6)CC5)CC4)CC3)C2=O)C(=O)N1 (stereo partly drawn) [ER-P-76, 3-(1"-(1-(4-((1R,2S)-6-hydroxy-2-phenyl-1,2,3,4-tetrahydronaphthalen-1-yl)phenyl)piperidine-4-carbonyl)-6-oxo-6,8-dihydro-2H,7H-dipyridole[furo[2,3-e]isoindole-3,1'-cyclohexane-4',4"-piperidin]-7-yl)piperidine-2,6-dione] | 5.75 nM | > 100000 nM |  |  |  |  |  |  |
| Cn1c(=O)n(C2CCC(=O)NC2=O)c2cc3c(cc21)C1(CCN(C(=O)CN2CCC4(CCN(c5ccc([C@@H]6c7ccc(O)cc7CC[C@@H]6c6ccccc6)cc5)CC4)C2)CC1)CO3 (stereo partly drawn) [ER-P-69, 3-(1'-(2-(8-(4-((1R,2S)-6-hydroxy-2-phenyl-1,2,3,4-tetrahydronaphthalen-1-yl)phenyl)-2,8-diazaspiro[4.5]decan-2-yl)acetyl)-1-methyl-2-oxo-1,2-dihydro-3H,6H-spiro[benzofuro[5,6-d]imidazole-7,4'-piperidin]-3-yl)piperidine-2,6-dione] | 0.28 nM | 1.43 nM |  |  |  |  |  |  |
| O=C1CC[C@H](NC(=O)c2c(F)ccc3c2OCC32CCN(CC3CCC(OC4CCN(c5ccc([C@@H]6c7ccc(O)cc7CC[C@@H]6c6ccccc6)cc5)CC4)CC3)CC2)C(=O)N1 (stereo partly shown) [ER-P-86] |  |  |  |  |  |  | 68.8 nM | 6660 nM |
